Measured values from PubChem BioAssay (NCI).
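The compound was tested at five concentrations on cells cultured in 96-well plates, with a 48-hour exposure period. TGI: concentration producing complete growth inhibition.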

Key:
Test in all cases: growth of human tumour cells (NCI), 48 h
[1] = test system: SK-OV-3 ovarian
[2] = test system: SK-MEL-5 melanoma
[3] = test system: SF-539 CNS
[4] = test system: SNB-75 CNS
[5] = test system: OVCAR-3 ovarian
[6] = test system: NCI-H522 lung
[7] = test system: HOP-92 NSCLC
[8] = test system: KM12 colon
[9] = test system: MDA-N
[10] = test system: SK-MEL-28 melanoma
[11] = test system: BT-549 breast
[12] = test system: COLO 205 colon
[13] = test system: CAKI-1 renal
[14] = test system: OVCAR-5 ovarian
[15] = test system: UACC-257 melanoma
[16] = test system: EKVX NSCLC
[17] = test system: SN12C renal
[18] = test system: HT29 colon
[19] = test system: LOX IMVI melanoma
[20] = test system: NCI/ADR-RES ovarian

Row | SMILES | TGI [1] [µM] | TGI [2] [µM] | TGI [3] [µM] | TGI [4] [µM] | TGI [5] [µM] | TGI [6] [µM] | TGI [7] [µM] | TGI [8] [µM] | TGI [9] [µM] | TGI [10] [µM] | TGI [11] [µM] | TGI [12] [µM] | TGI [13] [µM] | TGI [14] [µM] | TGI [15] [µM] | TGI [16] [µM] | TGI [17] [µM] | TGI [18] [µM] | TGI [19] [µM] | TGI [20] [µM]
1 | Cc1c2cnccc2nc2[nH]c3ccncc3c12 | > 100 | 20.6 | > 100 | > 100 | 42.4 | 18.5 | 25.3 | 41.8 | 43.2 | > 100 | 63.8 | > 100 | 24.9 | 40.5 | 94.9 | 96.9 | > 100 | > 100 | 11.9 | 
2 | Cc1ccc(NC(=O)CC(=O)n2nc(C)c(N=Nc3ccc(S(=O)(=O)CCOS(=O)(=O)O)cc3)c2C)cc1 | > 100 | > 100 | > 100 | > 100 | > 100 | > 100 |  | > 100 | > 100 | > 100 |  | > 100 |  | > 100 | > 100 | > 100 |  | > 100 | > 100 | > 100
3 | C=C(Br)CN(CC(=C)Br)C(C)=O | > 100 | > 100 | > 100 | > 100 | > 100 | > 100 |  | > 100 | > 100 | > 100 |  | > 100 | > 100 | > 100 | > 100 | > 100 | > 100 | > 100 | > 100 | > 100
4 | O=C(CC(C(=O)c1ccsc1)c1ccccc1)c1cccs1 (configuration not stated) | > 100 | > 100 | > 100 | > 100 | > 100 | > 100 | > 100 | 88.6 | > 100 | > 100 |  | > 100 | > 100 | > 100 | > 100 | > 100 | > 100 | > 100 |  | 67.9
5 | O=C1CCC[C@H]2O[C@@H](COCc3ccccc3)C[C@@H]12 | > 100 | > 100 | > 100 | > 100 | > 100 |  | > 100 | > 100 | > 100 | > 100 |  | > 100 | > 100 | > 100 | > 100 |  | > 100 | > 100 |  | > 100
6 | O=C1CCc2cc3c(cc21)CC1(Cc2ccccc2C1)C3 | > 100 | 17.8 | 56.2 | > 60.8 | > 80.8 | > 79.9 | 35.6 | > 100 | 4.76 | > 100 |  | 17.2 | 47.2 | > 86.9 | 65.2 | > 100 | > 100 | 14.2 | > 100 | > 60.1
7 | CC(C)=CCC/C(C)=C/Cc1c(O)ccc2c1[nH]c1cc(O)c(C)cc12 | > 25 | > 25 | 23.8 |  | 21.2 | > 25 | > 25 | > 25 |  | > 25 |  | > 25 |  | > 25 |  |  | > 25 | > 25 | > 25 | 
8 | CCc1cc2c(cc1CCCC(=O)O)CC1(Cc3ccc(C(=O)O)cc3C1)C2 (configuration not stated) | > 100 | > 100 | > 100 | > 100 | > 100 | > 100 | > 100 | > 100 | > 100 | > 100 |  | > 100 | > 100 | > 100 | > 100 | > 100 | > 100 | > 100 | > 100 | > 100
9 | CN1CN(c2ccccc2)C2(CCN(CCCC(=O)c3cccs3)CC2)C1=O | > 100 | 65 | 64 | > 100 | > 100 | > 100 |  | > 100 | > 100 | > 100 |  | 47.7 | > 100 | 87.4 | 90.6 | 80.9 | > 100 | 73.6 | > 100 | > 100
10 | COc1cc2c(c(OC)c1OC)C(=O)[C@H]1OC(=O)N[C@@H]21 | > 100 |  | > 100 | > 100 | > 100 |  | > 100 | > 100 |  | > 100 |  | > 100 | > 100 | > 100 | > 100 |  | > 100 | > 100 | > 100 | > 100
11 | CCOC(=O)CN1CCSC1=NC#N | > 100 | > 100 | > 100 | > 100 | > 100 | > 100 | > 100 | > 100 |  | > 100 |  | > 100 | > 100 | > 100 | > 100 | > 100 | > 100 | > 100 | > 37.6 | > 100
12 | CN=C(N)N/N=C(\C)c1ccc2oc3ccc(/C(C)=N/NC(N)=NC)cc3c2c1 | 74 | > 100 |  |  | > 100 |  |  | > 100 | > 30.6 | > 100 | > 22.8 | > 100 | 83 | > 87 | > 68.1 | > 100 | > 24.5 |  |  | > 100
13 | CCN1C(=O)C(=Cc2ccc(-c3ccccc3)cc2)C(=O)N(CC)C1=S | > 100 | > 100 | > 100 | > 100 | > 100 |  | > 100 | > 100 |  | > 100 | > 100 | > 100 | > 100 | > 100 | > 100 | > 100 | > 100 | > 100 | > 100 | > 100
14 | CCOC(=O)C1(Cc2c[nH]c3ccccc23)C(O)CCCN1C(C)=O (configuration not stated) | > 100 | > 100 | > 100 | > 100 | > 100 |  | > 100 | > 100 |  | > 100 | > 100 | > 100 | > 100 | > 100 | > 100 | > 100 |  | > 100 | > 100 | > 100
15 | CC(Oc1ccc(OCC2CCCCC2)cc1)C(=O)N(CCO)CCO (configuration not stated) | > 100 | > 100 | 39.8 | > 100 | > 100 | > 100 |  | > 100 |  | > 100 |  |  |  |  | > 100 |  | > 100 | > 100 | > 100 | 
16 | C=CC12CN(C)C3C4COC(CC41)C1(C(=O)Nc4ccccc41)C32 (configuration not stated) | > 82.4 | > 200 | > 200 | > 200 | > 200 | > 200 | > 200 | > 200 |  | > 200 |  | > 200 | > 200 | > 200 | > 200 | > 200 | > 200 | > 200 | > 200 | > 200
17 | CC(C)N1CSC(=S)N(Cc2ccccc2)C1 | > 10 | > 10 | 3.35 | > 10 | > 10 |  | 8.39 | > 10 | 7.44 | > 10 |  | > 10 |  |  |  | > 10 | > 10 | 6.04 | > 10 | > 10
18 | CC1=CCS(=O)(=O)C1C(O)C1=C(C)CCCC1(C)C (configuration not stated) | > 100 | > 100 | > 100 | > 100 | > 100 | > 100 |  | > 100 | > 100 | > 100 |  | > 100 | > 100 | > 100 | > 100 | > 100 | > 100 | > 100 | > 100 | > 100
19 | CCOC(=O)C(O)(NC(=O)Nc1ccc(F)cc1)C(F)(F)F (configuration not stated) | > 100 | > 100 | > 100 | > 100 |  |  |  |  | > 100 | > 100 | > 100 | > 100 | > 100 | > 100 | > 100 | > 100 | > 100 | > 100 | > 100 | > 100
20 | O=C(Nc1ccc([N+](=O)[O-])cc1)C(=O)C(C(=O)c1ccccc1F)C1OC(=O)c2ccccc21 (configuration not stated) | > 100 | > 100 | 56 | 96.4 |  | 41.6 | > 100 | > 100 |  | > 100 |  | 68 | > 100 | > 100 | > 100 | > 100 | > 100 | > 100 | 60.7 | 
21 | CC(=O)O[C@]12CCC[C@H]1C1(O)C(O)CCC[C@H]12 (some centres not stated) | > 100 | > 100 |  | > 100 |  | > 100 |  | > 100 |  | > 100 |  | > 100 |  |  | > 100 | > 100 | > 100 | > 100 | > 100 | 
22 | Cn1c(=O)nc2n(-c3ccc(Cl)cc3Cl)c3ccccc3nc-2c1=O | 72.8 | 3.36 | 19.3 |  | 5.59 |  | 9.24 | 15.8 |  | 23.5 |  | 8.73 | 13.2 | 49 |  | 16.9 |  | 10.3 |  | 
23 | O=C1C(=O)N(C2CCCCC2)C(=S)N1C1CCCCC1 | > 100 | > 100 | > 100 | > 100 |  | > 100 | > 100 | > 100 | > 100 | > 100 |  | > 100 | > 100 | > 100 | > 100 | > 100 | > 100 | > 100 | > 100 | > 100
24 | CCOC(=O)N1CCN(C(=O)Nc2cccc3ccccc23)CC1 | > 10 | > 10 | > 10 | > 10 | > 10 | > 10 |  | > 10 | > 10 | > 10 |  | > 10 | > 10 | > 10 |  | > 10 | > 10 | > 10 | > 10 | > 10
25 | CCOC(CCCN1CCC2(CC1)C(=O)N(C)CN2c1ccccc1)(OCC)c1ccc(F)cc1 | 46.8 | 14.9 | 13.7 | 43.8 | 26.8 | 34.2 |  | 29.5 | 24.5 | 30.5 |  | 6.88 | 49.2 | 21.6 | 18.5 | 9.81 | 21.9 | 14 | 31 | 33.5
26 | [O-]c1on[n+]2c1c(Nc1ccc(Cl)cc1)nc1ccccc12 | > 100 | > 100 | > 100 | > 100 | > 100 | > 100 | > 100 | > 100 |  | > 100 |  | > 100 |  | > 100 | > 100 | > 100 | > 100 | > 100 | > 100 | 
27 | OC(c1ccccc1)(c1ccccc1)c1cccnc1 | > 100 | > 100 | > 100 | > 100 | > 100 |  |  | > 100 |  | > 100 |  | > 100 | > 100 | > 100 | > 100 | > 100 | > 100 | > 100 | > 100 | 
28 | CC(CCc1ccc2c(c1)c(=N)c1ccc(N)cc1n2O)CC(C)(C)C (configuration not stated) |  | 3.01 |  |  | 3.19 |  |  | 3.51 |  | 3.58 |  | 2.79 | 3.19 | 2.93 | 3.63 | 3.04 | 3.22 |  | 3.07 | 
